Assay results reported in US11759444B2, “Methods for cancer and immunotherapy using prodrugs of glutamine analogs” (The Johns Hopkins University, priority 2015, dated 2023).
“Also recorded” adds a separate entry of the source. Where two headings read alike, the source gives them in different places.

How the values were obtained:
[1] = In vitro plasma stability, dog plasma; type: in vitro ADME
[2] = Plasma and CSF pharmacokinetics in swine, i.v. infusion; type: in vivo, Göttingen×Yucutan miniature swine; details: 60 min post-administration
[3] = In vitro plasma stability, pig plasma; type: in vitro ADME
[4] = In vitro plasma stability, monkey plasma
[5] = In vitro plasma stability, mouse plasma
[6] = Plasma and CSF pharmacokinetics in monkeys, i.v.; type: in vivo, pigtail macaques; details: monkey
Protocol: All monkey studies were conducted according to protocol (#PR15M298) approved by the Animal Care and Use Committee at Johns Hopkins University. Two female pigtail monkeys (approximately 3.5 kg, non-drug naive) were adjacently housed in stainless steel cages on a social interaction rack (contains 4 cages, each 32.5″ wide×28″ deep×32″ high) maintaining temperature of 64-84° F., humidity of 30-70% with alternating 14-10 hour light/dark cycle as per the USDA Animal Welfare Act (9 CFR, Parts 1, 2, and 3). Food was provided daily in amounts appropriate for the size and age of the animals and RO purified water provided ad libitum through an in-cage lixit valve. Food enrichment was provided Monday through Friday. […]
We have previously published a highly sensitive method for analysis of DON in biological matrices (Alt, et al., 2015). […] The mean predicted […] for back calculated concentrations of the standards and QC's for all analytes were within the range of 85 to 115%, except for the lowest concentration which was within the range of 80 to 120% with an overall accuracy and precision of 6.7% and 6.6% respectively.
Mean concentration-time data was used for pharmacokinetic analysis. […] Area under the curve (AUC) was calculated by log-linear trapezoidal rule to the end of sample collection (AUClast). […]

[7] = In vitro plasma stability, human plasma
[8] = microsomes
MC38 cells [9] = experiment: MC38 colon cancer tumor model; type: in vivo, C57BL/6 mice; details: for MC38 tumor response, monotherapy (words): 1 mg/kg followed by 0.3 mg/kg, 14 days, wild type mice; for rejection of tumor re-challenge by mice cured with monotherapy: MC38 rechallenge on opposite flank; for MC38 response in combination with anti-PD1: combination with anti-PD-1
Protocol: (§1) Tumor growth and survival experiments: Tumor injections were administered in the right flank. For the MC38 and MC38OVA models, C57BL/6 WT mice were injected with 5×10^5 MC38 or MC38OVA cells (s.c.) cultured in DMEM-based media. For the CT26 model, BALB/c mice were injected with 5×10^5 CT26 cells (s.c.) cultured in RPMI-based media. Compound 25 was dissolved in 2.5% ethanol in PBS (v/v) which was administered for all vehicle-treated control experiments. For MC38 and MC38OVA experiments, mice were treated with Compound 25 or vehicle by daily gavage with 1 mg/kg/day in 100 uL for days 10-14 and with 0.3 mg/kg/day for day 15-24. For CT26 experiments, mice were treated with compound 25 or vehicle by daily gavage with 1 mg/kg/day in 100 uL for days 7-11 and with 0.3 mg/kg/day for day 12-21.

3LL cells = experiment: 3LL tumor model; type: in vivo, C57BL/6J mice
Text: 5×10^6 3 LL cells were implanted subcutaneously into the right flank in C57BL/6J male mice.

EL4 lymphoma = experiment: EL4 mouse lymphoma model; type: in vivo; details: monotherapy
B16 melanoma = B16 melanoma mouse model; type: in vivo; details: monotherapy
B16-OVA melanoma cells = experiment: B16-OVA melanoma model with adoptive cellular therapy; type: in vivo, C57BL/6 mice; details: 1 mg/kg/day days 7-9 before transfer on day 10
Protocol: Adoptive Cellular Therapy: OVA-expressing B16 melanoma model, C57BL/6 WT mice received a s.c. injection of 2×10^5 B16-OVA melanoma cells cultured under OVA selection media containing 400 μg/ml G418 (Life technologies). Mice were treated with compound 25 or vehicle by daily gavage with 1 mg/kg/day in 100 uL for days 7-9 post tumor inoculation. Ten days after tumor injection, mice received an adoptive transfer of 1.5×10^6 activated OT1 cells, which had been stimulated in vitro with […] peptide for 48 h, expanded in IL-2 (1 ng/mL) for 24 h and isolated with Ficol gradient centrifugation. Mice were randomized based on tumor size before transfer of activated OT1 cells for adoptive transfer experiments. Tumor burden was assessed every 2-4 days by measuring length and width of tumor. Tumor volume was calculated using the formula V=(L×W×W)/2, where V is tumor volume, W is tumor width, and L is tumor length. Mice were sacrificed when tumor reached 2 cm in any dimension, became ulcerate or necrotic, or caused functional deficits.

4T1 tumor cells = experiment: 4T1 breast cancer model; details: for 4T1 tumor growth and survival, monotherapy (words): 1 mg/kg daily
EO771 cells = experiment: EO771 breast cancer model; type: in vivo, C57BL/6 mice
Protocol: Mouse: C57BL/6 (both male and female mice, 6-8 weeks of age) were purchased from Jackson Laboratories. The studies were conducted under a protocol approved by the Johns Hopkins Animal Care and Use Committee.
Cell Line: EO771 breast cancer cell lines were purchased from CH3 BioSystems.
Treatment with immunotherapy alone or combined immunotherapy with compound 25: On days 9, 12, and 15, mice were injected with or without 100 μg anti-PD1 alone or 100 μg anti-PD1 in combination with 100 μg anti-CTLA4, followed by treatment with or without compound 25. Each individual mouse tumor growth and survival curves were recorded.

MC38 cells [10] = experiment: MC38 colon cancer tumor model; type: in vivo, C57BL/6 mice; details: growth rate recovered after several days
CT26 cells = experiment: CT26 colon cancer tumor model; type: in vivo, BALB/c mice; details: for CT26 anti-tumor response in combination with anti-PD1: combination with anti-PD-1
Protocol: as §1

[11] = microsomes; remark: listed apart in the source
[12] = Table 2, prodrug 10 μM, 60 min incubation at 37° C., values read as % prodrug remaining
[13] = 1 mg/kg daily day 7 to 16, tumors evaluated day 21

CC(C)OC(=O)[C@H](CCC(=O)C=[N+]=[N-])NC(=O)O[C@H](C)OC(=O)C(C)(C)C (single isomer, unassigned) [Compound 14b]
stability in dog plasma [1]: stable
CSF delivery of DON [2]: substantially higher amounts of DON; also recorded: enhanced CSF delivery of DON
CSF-to-plasma ratio of DON [2]: increased CSF-to-plasma ratios; also recorded: enhanced CSF:plasma ratio of DON
stability in pig plasma [3]: stable
stability in monkey plasma [4]: stable
PLASMA STABILITY Monkey [4, 12]: 61%
stability in monkey plasma ([4]; listed as 5c): stable; also recorded: excellent stability
metabolism in mouse plasma [5]: rapidly metabolized
PLASMA STABILITY Mouse [5, 12]: 0%
metabolism in mouse plasma ([5]; listed as 5c): completely converted to DON
CSF:plasma ratio of DON [6]: enhanced CSF:plasma ratio of DON
stability in human plasma [7]: stable
PLASMA STABILITY Human [7, 12]: 91%
stability in human plasma ([7]; listed as 5c): stable; also recorded: excellent stability

CCOC(=O)[C@H](CCC(=O)C=[N+]=[N-])NC(=O)[C@@H](N)CC(C)C [Compound 25]
liver microsomal stability, pig [8]: moderate-high stability
MC38 tumor response, monotherapy (words) (MC38 cells [9]): complete and durable response
MC38 tumor response, monotherapy (words) (MC38 cells [9]; listed as compound 25): marked decrease in tumor growth; also recorded: durable cures; also recorded: significant control of the tumor including complete regression in a proportion of the mice
rejection of tumor re-challenge by mice cured with monotherapy (MC38 cells [9]): immunologically reject tumors upon re-challenge
rejection of tumor re-challenge by mice cured with monotherapy (MC38 cells [9]; listed as compound 25): More than three-quarters
MC38 response in combination with anti-PD1 (MC38 cells [9]): conditions tumors to be eliminated by anti-PD1 therapy; also recorded: rescues anti-PD1 failures
MC38 response in combination with anti-PD1 (MC38 cells [9]; listed as compound 25): unexpected increase in both tumor regression and complete responses
3LL tumor growth (3LL cells; 1 mg/kg from day 7, then 0.3 mg/kg): reduced tumor growth
ratio of CD8 cells to MDSCs+ and TANs, blood and TIL (3LL cells; 3LL tumor-bearing mice): increased ratio of CD8 cells to MDSCs+ and TANs
lymphoma tumor growth (EL4 lymphoma): marked decrease in tumor growth
melanoma tumor growth (B16 melanoma): marked decrease in tumor growth
tumor control and survival with adoptive transfer of activated OT1 T cells (B16-OVA melanoma cells): unexpected improvement in tumor control and survival
4T1 tumor growth and survival, monotherapy (words) (4T1 tumor cells): robust response and improved overall survival
CD11b+ cells and G-MDSCs in circulating blood (4T1 tumor cells; 1 mg/kg daily day 7 to 16, flow cytometry days 6, 9, 17): reduced CD11b+ cells and G-MDSCs
TNF alpha in tumor associated macrophages (4T1 tumor cells; [13]): increased TNF alpha
fibrocytes in tumor (4T1 tumor cells; [13]): reduced fibrocytes
4T1-Luc tumor luminescence, comparison with anti-PD1 (4T1 tumor cells; 1 mg/kg daily from day 7, IVIS imaging day 13): inhibited mammary carcinoma cell proliferation better than anti-PD1
4T1 tumor growth and survival, monotherapy (words) (4T1 tumor cells; listed as compound 25): inhibited the growth of mammary carcinoma tumor cells; also recorded: modest decrease in tumor growth
spontaneous lung metastasis (4T1 tumor cells; 1 mg/kg from day 7, then 0.3 mg/kg, lungs harvested day 30): significantly reduces lung metastasis
4T1 breast cancer model, comparison with CB-839 (4T1 tumor cells; 25 daily days 7-22 (1.0 mg/kg/d) vs CB-839 BID days 1-29): superior to CB-839
4T1 tumor growth and survival, combination with anti-PD1 and anti-CTLA4 (4T1 tumor cells; compound 25 + anti-PD1 + anti-CTLA-4): substantial decrease of tumor growth and increase in survival time
EO771 tumor growth and survival, single agent (EO771 cells; agent alone): delayed tumor growth and increased survival
EO771 tumor growth and survival, combination with anti-PD-1 (EO771 cells; compound 25 + anti-PD-1): surprising increase in inhibition of tumor growth and survival
MC38 tumor growth in RAG2−/− mice (MC38 cells [10]): some initial effect on tumor growth
CT26 tumor model, comparison with CB-839 (CT26 cells; 25 short daily course vs CB-839 continuous BID dosing): superior to CB-839
CT26 anti-tumor response in combination with anti-PD1 (CT26 cells): unexpectedly enhances the response to anti-PD1
CT26 anti-tumor response in combination with anti-PD1 (CT26 cells; listed as compound 25): significant anti-tumor responses
CT26 tumor response and survival, monotherapy (words) (CT26 cells): robust response and improved overall survival
CT26 tumor response and survival, monotherapy (words) (CT26 cells; listed as compound 25): marked decrease in tumor growth
liver microsomal stability, human [11]: moderate-high stability
